We go through 1 compound from patent US12103916B2, “Antifungal compounds” (University of Kentucky Research Foundation, priority 2016, dated 2024).

Like-named read-outs stand apart in the source and are kept apart here. Marks after values point to notes of the source that are not given here.

For test [1], the system named is C. albicans ATCC 64124 (strain B) biofilms. Kind of test: Antibiofilm activity by XTT reduction assay. Type of test: cell-based, Candida albicans. As to conditions: Table 4, Ex.2. As for the experimental part: Antibiofilm activity of synthetic compounds. Biofilms are complex functional communities of one or more species of microorganisms that are encased in extracellular polymeric substances and attached to both a solid surface and to each other. Being complex matrices, antifungal agents have difficulty reaching the pathogens embedded in these difficult-to-treat networks. The antibiofilm activity of compounds 7, 9, 20, 22, 25, and 26, as well as that of VOR were evaluated against biofilms of C. albicans ATCC 64124 (strain B) by XTT reduction assay (Table 4).
In general terms: Tetrazolium assays rely on reduction of a dye to a coloured formazan, in cell work by metabolically active cells.

The next test relates to Candida krusei ATCC 6258. Kind of test: MIC determination, strain I. Type of test: cell-based. As to conditions: Pichia kudriavzevii, ATCC6258. As for the experimental part:
(§1) The antifungal activity of our new azole compounds 1-9 and 24-41 was first evaluated against a panel of seven Candida albicans strains (A-G), three non-albicans Candida strains […], and three Aspergillus strains (K-M) in a concentration range of 0.03-31.2 μg/mL (Table 1). […] For all of our azole derivatives we report their MIC-0 values against C. albicans ATCC 10231 (strain A) and all Aspergillus strains (K-M), which correspond to complete growth inhibition of these fungi. […] The commercially available antifungals AmB, FLC, ITC, POS, and VOR were used as reference drugs for comparison. The MIC values presented for these five control drugs were either tested herein or correspond to our previously published data^5, 16 as indicated in Table 1.
(§2) Antifungal activity in the absence or presence of serum. The antifungal activity of the newly prepared alkylated piperazine/morpholine-azole hybrids 16-28, of intermediate 14 that we used to verify that only final compounds exert antifungal activity, as well as that of alkylated piperazine/morpholine derivatives 1-10 were first evaluated against a panel of seven C. albicans (ATCC 10231 (A), ATCC 64124(R) (B), ATCC MYA-2876(S) (C), ATCC 90819(R) (D), ATCC MYA-2310(S) (E), ATCC MYA-1237(R) (F), and ATCC MYA-1003(R) (G)), three non-albicans Candida (C. glabrata ATCC 2001 (H), C. krusei ATCC 6258 (I), and C. parapsilosis ATCC 22019 (J)), and three Aspergillus (A. flavus ATCC MYA-3631 (K), A. nidulans ATCC 38163 (L), and A. terreus ATCC MYA-3633 (M)) strains using a concentration range of 0.03-31.3 μg/mL (Table 2).
(§3) Commercially available antifungal agents such as AmB, CAS, FLC, and VOR were used as positive controls for comparison. […] It is important to note that all comparisons to follow will be done by using the MIC values reported in μg/mL as the data were collected that way. However, we also present in parentheses in Table 2 the corresponding values in micromolar.
(§4) We used the commercially available antifungal agents such as AmB, caspofungin (CAS), FLC, and VOR as positive controls for comparison. For derivatives 5-16 as well as the reference drugs AmB and CAS, we reported MIC-0 values, which correspond to no visible growth. […] In this manuscript, we performed all activity comparisons by using the MIC values reported in μg/mL (Note: the corresponding MIC values are also provided in μM into parentheses in Tables 1, 2, S1, and S2).

The test system of test [2] is C. albicans ATCC MYA-1237(R). The experiment in a line: MIC determination, strain F. In kind it is cell-based, Candida albicans. As to conditions: Candida albicans. The source says:
For all of our azole derivatives we report their MIC-0 values against C. albicans ATCC 10231 (strain A) and all Aspergillus strains (K-M), which correspond to complete growth inhibition of these fungi. […] The MIC values presented for these five control drugs were either tested herein or correspond to our previously published data^5, 16 as indicated in Table 1.
Antifungal activity in the absence or presence of serum.
It is important to note that all comparisons to follow will be done by using the MIC values reported in μg/mL as the data were collected that way. However, we also present in parentheses in Table 2 the corresponding values in micromolar.
In this manuscript, we performed all activity comparisons by using the MIC values reported in μg/mL (Note: the corresponding MIC values are also provided in μM into parentheses in Tables 1, 2, S1, and S2).

For test [3], the system named is C. albicans ATCC MYA-1237(R). As to conditions: Table 1; strain F; control azoles; previously reported (refs 5, 16); cited from earlier work.
Test [4] has as its system C. albicans ATCC MYA-2876(S). Kind of test: MIC determination, strain C. Type of test: cell-based, Candida albicans. Conditions: Candida albicans. As for the experimental part:
as §1, §2, §3, §4

Test [5] deals with C. albicans ATCC 64124. Conditions: Table 1; strain B; control azoles; previously reported (refs 5, 16); cited from earlier work.
The test system of test [6] is Candida glabrata ATCC 2001. Conditions: Table 1; strain H; control azoles; previously reported (refs 5, 16); cited from earlier work.
For test [7], the system named is Candida parapsilosis ATCC 22019. The experiment in a line: MIC determination, strain J. Type of test: cell-based. Conditions: Lodderomyces parapsilosis. As for the experimental part: as §1, §2, §3, §4
Test [8] concerns C. albicans ATCC 64124. Kind of test: MIC determination, strain B. Type of test: cell-based, Candida albicans. Conditions: Candida albicans, ATCC64124. As for the experimental part:
as §1, §2, §3, §4

[9] abbreviates: read-out: MIC (MIC-2), in parentheses.

As usually defined, the MIC is the smallest concentration in the dilution series that meets the test's criterion for growth inhibition.

Turning to `C[C@@H](c1ncncc1F)[C@](O)(Cn1cncn1)c1ccc(F)cc1F` [VOR, voriconazole], in test [1] (reduces metabolic activity of biofilms by 50%), the SMIC50 is 62.5 µg/mL. In [1] (reduces metabolic activity of biofilms by 80%), this compound yielded an SMIC80 of 62.5 µg/mL. In addition, the minimal inhibitory concentration (MIC) in the test with Candida krusei ATCC 6258 (read-out: MIC (MIC-2)) is 0.12 µg/mL; in the test with Candida krusei ATCC 6258 (setting [9]), 0.34 µM; in [2] (read-out: MIC (MIC-2)), 7.8 µg/mL; in test [2] (setting [9]), 22.3 µM; in test [4] (read-out: MIC (MIC-2)), 1.95 µg/mL; in test [4] (setting [9]), 5.6 µM. Also, the minimum inhibitory concentration (MIC) in [7] (ATCC22019, read-out: MIC, Candida parapsilosis ATCC 22019 (J) (+10% FBS), Table 3, Ex.2 compounds, +10% FBS) is 0.015 µg/mL; in test [7] (ATCC22019, Table 3, Ex.2 compounds, no FBS, read-out: MIC, Candida parapsilosis ATCC 22019 (J) (no FBS)), 0.015 µg/mL; in test [7] (ATCC22019, read-out: MIC (MIC-2)), < 0.03 µg/mL; in [7] (ATCC22019, read-out: MIC (MIC-2), in parentheses), < 0.06 µM; in the test on C. albicans ATCC 64124 [8] (read-out: MIC (MIC-2)), 3.9 µg/mL; in the test with C. albicans ATCC 64124 [8] (setting [9]), 11.2 µM. Moreover, the “MIC (MIC-2)” value in test [3] is reported as 7.8^c μg/mL; with C. albicans ATCC 64124 [5] it was 3.9^c μg/mL; in test [6], 0.06^c μg/mL.
